Assays:
[1] = system: COR-L279; assay: SANGER: Inhibition of human COR-L279 cell growth in a cell viability assay.; type: functional, cell-based
[2] = system: LU-165; assay: cells; type: functional, cell-based; settings: Homo sapiens
Description: SANGER: Inhibition of human LU-165 cell growth in a cell viability assay.

[3] = system: TUR; assay: cells; type: functional, cell-based; settings: Homo sapiens;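 also: growth inhibition of human TUR cells, read out with a cell viability assay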
Description: SANGER: Inhibition of human TUR cell growth in a cell viability assay.

[4] = system: SU-DHL-1; assay: SANGER: Inhibition of human SU-DHL-1 cell growth in a cell viability assay.; type: functional, cell-based
[5] = system: EVSA-T; assay: cells; type: functional, cell-based; settings: Homo sapiens;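 also: growth inhibition of EVSA-T cells, read out with a cell viability assay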
Description: SANGER: Inhibition of human EVSA-T cell growth in a cell viability assay.

[6] = system: NCI-H2196; assay: cells; type: functional, cell-based; settings: Homo sapiens;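 also: cell viability assay used as the readout of growth inhibition in NCI-H2196 cells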
Description: SANGER: Inhibition of human NCI-H2196 cell growth in a cell viability assay.

[7] = system: SIG-M5; assay: cells; type: functional, cell-based; settings: Homo sapiens;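 also: cell viability assay read-out, measuring how strongly growth of cultured human SIG-M5 cells is inhibited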
Description: SANGER: Inhibition of human SIG-M5 cell growth in a cell viability assay.

[8] = system: NCI-H64; assay: cells; type: functional, cell-based; settings: Homo sapiens;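 also: growth inhibition of NCI-H64 cells, read out with a cell viability assay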
Description: SANGER: Inhibition of human NCI-H64 cell growth in a cell viability assay.

[9] = system: SIMA; assay: cells; type: functional, cell-based; settings: Homo sapiens;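 also: growth inhibition of SIMA cells, measured with a cell viability readout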
Description: SANGER: Inhibition of human SIMA cell growth in a cell viability assay.

[10] = system: NB1; assay: cells; type: functional, cell-based; settings: Homo sapiens;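 also: reduction of NB1 cell proliferation, read out with a viability assay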
Description: SANGER: Inhibition of human NB1 cell growth in a cell viability assay.

[11] = system: EW-22; assay: cells; type: functional, cell-based; settings: Homo sapiens;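 also: growth inhibition of the EW-22 cell line, measured with a cell viability readout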
Description: SANGER: Inhibition of human EW-22 cell growth in a cell viability assay.

[12] = system: MONO-MAC-6; assay: cells; type: functional, cell-based; settings: Homo sapiens;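 also: cell viability assay measuring growth inhibition of human MONO-MAC-6 cells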
Description: SANGER: Inhibition of human MONO-MAC-6 cell growth in a cell viability assay.

[13] = system: TE-441-T; assay: cells; type: functional, cell-based; settings: Homo sapiens
Description: SANGER: Inhibition of human TE-441-T cell growth in a cell viability assay.

[14] = system: SCC-3; assay: cells; type: functional, cell-based; settings: Homo sapiens;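 also: cell viability assay measuring inhibition of SCC-3 cell growth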
Description: SANGER: Inhibition of human SCC-3 cell growth in a cell viability assay.

[15] = system: HCT-15; assay: cells; type: functional, cell-based; settings: Homo sapiens;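 also: cell viability readout, IC50 reflecting suppression of HCT-15 cell growth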
Description: SANGER: Inhibition of human HCT-15 cell growth in a cell viability assay.

[16] = system: KYSE-180; assay: cells; type: functional, cell-based; settings: Homo sapiens;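 also: growth inhibition of KYSE-180 cells, read out with a cell viability assay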
Description: SANGER: Inhibition of human KYSE-180 cell growth in a cell viability assay.

[17] = system: SK-LU-1; assay: cells; type: functional, cell-based; settings: Homo sapiens;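 also: cell viability assay measuring growth inhibition of human SK-LU-1 cells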
Description: SANGER: Inhibition of human SK-LU-1 cell growth in a cell viability assay.

[18] = system: MG-63; assay: cells; type: functional, cell-based; settings: Homo sapiens;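 also: growth inhibition of human MG-63 cells, read out with a cell viability assay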
Description: SANGER: Inhibition of human MG-63 cell growth in a cell viability assay.

[19] = system: KYSE-140; assay: cells; type: functional, cell-based; settings: Homo sapiens;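 also: cell viability assay measuring growth inhibition in human KYSE-140 cells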
Description: SANGER: Inhibition of human KYSE-140 cell growth in a cell viability assay.

[20] = system: NCI-H2009; assay: cells; type: functional, cell-based; settings: Homo sapiens;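 also: cell viability assay measuring inhibition of NCI-H2009 cell growth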
Description: SANGER: Inhibition of human NCI-H2009 cell growth in a cell viability assay.

[21] = system: SW1088; assay: cells; type: functional, cell-based; settings: Homo sapiens;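 also: growth inhibition of human SW1088 cells, read out by a cell viability assay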
Description: SANGER: Inhibition of human SW1088 cell growth in a cell viability assay.

[22] = system: SNU-387; assay: cells; type: functional, cell-based; settings: Homo sapiens
Description: SANGER: Inhibition of human SNU-387 cell growth in a cell viability assay.

[23] = system: ME-180; assay: cells; type: functional, cell-based; settings: Homo sapiens;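 also: cell viability assay measuring growth inhibition of ME-180 cells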
Description: SANGER: Inhibition of human ME-180 cell growth in a cell viability assay.

[24] = system: SAOS-2; assay: cells; type: functional, cell-based; settings: Homo sapiens;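 also: growth inhibition of human Saos-2 cells determined by a cell viability assay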
Description: SANGER: Inhibition of human Saos-2 cell growth in a cell viability assay.

[25] = system: NCI-H358; assay: cells; type: functional, cell-based; settings: Homo sapiens;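 also: growth inhibition of NCI-H358 human cells, read out with a cell viability assay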
Description: SANGER: Inhibition of human NCI-H358 cell growth in a cell viability assay.

[26] = system: KOSC-2; assay: cells; type: functional, cell-based; settings: Homo sapiens;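 also: growth inhibition of KOSC-2 cells, read out by a cell viability assay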
Description: SANGER: Inhibition of human KOSC-2 cell growth in a cell viability assay.

[27] = system: OVCAR-8; assay: cells; type: functional, cell-based; settings: Homo sapiens;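 also: growth inhibition of human OVCAR-8 cells, read out by a cell viability assay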
Description: SANGER: Inhibition of human OVCAR-8 cell growth in a cell viability assay.

[28] = system: NCI-H1993; assay: cells; type: functional, cell-based; settings: Homo sapiens;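 also: growth inhibition of the cancer cell line, assessed with a cell viability assay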
Description: SANGER: Inhibition of human NCI-H1993 cell growth in a cell viability assay.

[29] = system: NCI-H2342; assay: cells; type: functional, cell-based; settings: Homo sapiens;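 also: growth inhibition of the cancer cell line, determined with a cell viability assay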
Description: SANGER: Inhibition of human NCI-H2342 cell growth in a cell viability assay.

[30] = system: AU565; assay: cells; type: functional, cell-based; settings: Homo sapiens;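 also: cell viability assay measuring growth inhibition of human AU565 cells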
Description: SANGER: Inhibition of human AU565 cell growth in a cell viability assay.

[31] = system: Capan-2; assay: cells; type: functional, cell-based; settings: Homo sapiens;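 also: Capan-2 cell growth inhibition, read out with a viability assay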
Description: SANGER: Inhibition of human Capan-2 cell growth in a cell viability assay.

[32] = system: TCC-SUP; assay: cells; type: functional, cell-based; settings: Homo sapiens;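 also: growth inhibition of TCC-SUP cells, read out with a cell viability assay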
Description: SANGER: Inhibition of human TCCSUP cell growth in a cell viability assay.

[33] = system: NCI-H1755; assay: cells; type: functional, cell-based; settings: Homo sapiens;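 also: cell viability readout used to measure growth inhibition of NCI-H1755 cells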
Description: SANGER: Inhibition of human NCI-H1755 cell growth in a cell viability assay.

[34] = system: T98G; assay: cells; type: functional, cell-based; settings: Homo sapiens;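 also: growth inhibition of T98G cells, read out by a cell viability assay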
Description: SANGER: Inhibition of human T98G cell growth in a cell viability assay.

[35] = system: KYSE-450; assay: cells; type: functional, cell-based; settings: Homo sapiens;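 also: cell growth inhibition measured by a viability assay in human KYSE-450 cells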
Description: SANGER: Inhibition of human KYSE-450 cell growth in a cell viability assay.

[36] = system: CHL-1; assay: cells; type: functional, cell-based; settings: Homo sapiens;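 also: cell growth inhibition, read out with a cell viability assay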
Description: SANGER: Inhibition of human CHL-1 cell growth in a cell viability assay.

[37] = system: HT55; assay: cells; type: functional, cell-based; settings: Homo sapiens;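 also: cell viability readout measuring growth inhibition of human HT55 cells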
Description: SANGER: Inhibition of human HT55 cell growth in a cell viability assay.

[38] = system: JEG-3; assay: cells; type: functional, cell-based; settings: Homo sapiens;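 also: growth inhibition of human JEG-3 cells, read out with a cell viability assay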
Description: SANGER: Inhibition of human JEG-3 cell growth in a cell viability assay.

[39] = system: HT-1080; assay: cells; type: functional, cell-based; settings: Homo sapiens
Description: SANGER: Inhibition of human HT-1080 cell growth in a cell viability assay.

[40] = system: COLO-792; assay: cells; type: functional, cell-based; settings: Homo sapiens
Description: SANGER: Inhibition of human COLO-792 cell growth in a cell viability assay.

[41] = system: YKG-1; assay: cells; type: functional, cell-based; settings: Homo sapiens;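 also: cell growth inhibition, read out with a viability assay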
Description: SANGER: Inhibition of human YKG-1 cell growth in a cell viability assay.

[42] = system: SK-HEP1; assay: cells; type: functional, cell-based, SK-HEP-1; settings: Homo sapiens;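 also: cell viability readout used to quantify reduction in proliferation of human SK-HEP-1 cells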
Description: SANGER: Inhibition of human SK-HEP-1 cell growth in a cell viability assay.

[43] = system: MFE-280; assay: cells; type: functional, cell-based; settings: Homo sapiens;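 also: growth inhibition of MFE-280 cells, determined with a cell viability readout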
Description: SANGER: Inhibition of human MFE-280 cell growth in a cell viability assay.

[44] = system: CAL-62; assay: cells; type: functional, cell-based; settings: Homo sapiens;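 also: growth inhibition of CAL-62 cells, read out with a cell viability assay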
Description: SANGER: Inhibition of human CAL-62 cell growth in a cell viability assay.

[45] = system: MKN-1; assay: cells; type: functional, cell-based; settings: Homo sapiens;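 also: growth inhibition of human MKN1 cells, read out by a cell viability measurement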
Description: SANGER: Inhibition of human MKN1 cell growth in a cell viability assay.

[46] = system: A673; assay: cells; type: functional, cell-based; settings: Homo sapiens;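 also: growth inhibition of human A673 cells, read out through a cell viability assay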
Description: SANGER: Inhibition of human A673 cell growth in a cell viability assay.

[47] = system: OAW-28; assay: cells; type: functional, cell-based; settings: Homo sapiens;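 also: growth inhibition of OAW-28 cells, read out with a cell viability assay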
Description: SANGER: Inhibition of human OAW-28 cell growth in a cell viability assay.

[48] = system: Huh-7; assay: cells; type: functional, cell-based; settings: Homo sapiens;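 also: HuH-7 cell growth inhibition, read out with a cell viability assay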
Description: SANGER: Inhibition of human HuH-7 cell growth in a cell viability assay.

[49] = system: MKN-28; assay: cells; type: functional, cell-based; settings: Homo sapiens;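 also: cell viability assay read-out, IC50 reflects suppression of growth of human MKN-28 cells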
Description: SANGER: Inhibition of human MKN28 cell growth in a cell viability assay.

[50] = system: NCI-H2170; assay: cells; type: functional, cell-based; settings: Homo sapiens;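 also: cell viability assay measuring growth inhibition of human NCI-H2170 cancer cells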
Description: SANGER: Inhibition of human NCI-H2170 cell growth in a cell viability assay.

[51] = system: P12-Ichikawa; assay: cells; type: functional, cell-based; settings: Homo sapiens
[52] = system: KP-4; assay: cells; type: functional, cell-based; settings: Homo sapiens;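 also: human KP-4 cells, with growth inhibition read out through a cell viability assay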
Description: SANGER: Inhibition of human KP-4 cell growth in a cell viability assay.

[53] = system: OVCAR-3; assay: cells; type: functional, cell-based; settings: Homo sapiens;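 also: growth inhibition of human OVCAR-3 cells, determined by a cell viability assay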
Description: SANGER: Inhibition of human OVCAR-3 cell growth in a cell viability assay.

[54] = system: HT-3; assay: cells; type: functional, cell-based; settings: Homo sapiens;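 also: growth inhibition measured with a cell viability readout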
Description: SANGER: Inhibition of human HT-3 cell growth in a cell viability assay.

[55] = system: UMUC3; assay: cells; type: functional, cell-based; settings: Homo sapiens;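 also: growth inhibition of human UM-UC-3 cells, read out with a cell viability assay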
Description: SANGER: Inhibition of human UM-UC-3 cell growth in a cell viability assay.

[56] = system: MKN-45; assay: cells; type: functional, cell-based; settings: Homo sapiens;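 also: growth inhibition of human MKN-45 cells, measured with a cell viability assay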
Description: SANGER: Inhibition of human MKN45 cell growth in a cell viability assay.

[57] = system: SW1783; assay: cells; type: functional, cell-based; settings: Homo sapiens
Description: SANGER: Inhibition of human SW1783 cell growth in a cell viability assay.

[58] = system: KYSE-270; assay: cells; type: functional, cell-based; settings: Homo sapiens;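 also: cell growth inhibition measured with a viability assay in the human KYSE-270 line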
Description: SANGER: Inhibition of human KYSE-270 cell growth in a cell viability assay.

[59] = system: 647-V; assay: cells; type: functional, cell-based; settings: Homo sapiens
Description: SANGER: Inhibition of human 647-V cell growth in a cell viability assay.

[60] = system: NCI-H596; assay: cells; type: functional, cell-based; settings: Homo sapiens
Description: SANGER: Inhibition of human NCI-H596 cell growth in a cell viability assay.

[61] = system: BFTC-909; assay: cells; type: functional, cell-based; settings: Homo sapiens
Description: SANGER: Inhibition of human BFTC-909 cell growth in a cell viability assay.

[62] = system: SW1417; assay: cells; type: functional, cell-based; settings: Homo sapiens
Description: SANGER: Inhibition of human SW1417 cell growth in a cell viability assay.

[63] = system: RT-112; assay: cells; type: functional, cell-based; settings: Homo sapiens
Description: SANGER: Inhibition of human RT-112 cell growth in a cell viability assay.

[64] = system: NCI-H1563; assay: cells; type: functional, cell-based; settings: Homo sapiens
Description: SANGER: Inhibition of human NCI-H1563 cell growth in a cell viability assay.

Compound: Cc1[nH]c(/C=C2\C(=O)Nc3ccc(S(=O)(=O)Cc4c(Cl)cccc4Cl)cc32)c(C)c1C(=O)N1CCC[C@@H]1CN1CCCC1 [PHA-665752]
- IC50 [1]: > 2 µM
- IC50 [2]: > 2 µM
- IC50 [3]: > 2 µM
- IC50 [4]: > 2 µM
- IC50 [5]: > 2 µM
- IC50 [6]: > 2 µM
- IC50 [7]: > 2 µM
- IC50 [8]: > 2 µM
- IC50 [9]: > 2 µM
- IC50 [10]: > 2 µM
- IC50 [11]: > 2 µM
- IC50 [12]: > 2 µM
- IC50 [13]: > 2 µM
- IC50 [14]: > 2 µM

Compound: COc1cc(Nc2c(C#N)cnc3cc(OCCCN4CCN(C)CC4)c(OC)cc23)c(Cl)cc1Cl [BOSUTINIB]
- IC50 [15]: > 2 µM
- IC50 [16]: > 2 µM
- IC50 [17]: > 2 µM
- IC50 [18]: > 2 µM
- IC50 [19]: 1.76 µM
- IC50 [20]: > 2 µM
- IC50 [21]: > 2 µM
- IC50 [22]: > 2 µM
- IC50 [23]: > 2 µM
- IC50 [24]: > 2 µM
- IC50 [25]: > 2 µM
- IC50 [26]: 1.32 µM
- IC50 [27]: > 2 µM
- IC50 [28]: > 2 µM
- IC50 [29]: > 2 µM
- IC50 [30]: > 2 µM
- IC50 [31]: > 2 µM
- IC50 [32]: > 2 µM
- IC50 [33]: > 2 µM
- IC50 [34]: > 2 µM
- IC50 [35]: > 2 µM
- IC50 [36]: 0.555 µM
- IC50 [37]: > 2 µM
- IC50 [38]: > 2 µM
- IC50 [39]: 0.553 µM
- IC50 [40]: > 2 µM
- IC50 [41]: > 2 µM
- IC50 [42]: > 2 µM
- IC50 [43]: > 2 µM
- IC50 [44]: > 2 µM
- IC50 [45]: > 2 µM
- IC50 [46]: > 2 µM
- IC50 [47]: > 2 µM
- IC50 [48]: > 2 µM
- IC50 [49]: > 2 µM
- IC50 [50]: > 2 µM
- IC50 [11]: > 2 µM
- IC50 [51]: > 2 µM
- IC50 [52]: > 2 µM
- IC50 [53]: > 2 µM
- IC50 [54]: > 2 µM
- IC50 [55]: > 2 µM
- IC50 [56]: > 2 µM
- IC50 [57]: > 2 µM
- IC50 [58]: > 2 µM
- IC50 [59]: > 2 µM
- IC50 [60]: > 2 µM
- IC50 [61]: > 2 µM
- IC50 [62]: > 2 µM
- IC50 [63]: > 2 µM
- IC50 [64]: > 2 µM

Compound: CCn1c(-c2nonc2N)nc2cnc(Oc3cccc(NC(=O)c4ccc(OCCN5CCOCC5)cc4)c3)cc21 [GSK-269962A]
- IC50 [1]: 2.07 µM
- IC50 [2]: > 2.5 µM
- IC50 [3]: > 2.5 µM
- IC50 [4]: > 2.5 µM
- IC50 [5]: > 2.5 µM
- IC50 [6]: > 2.5 µM
- IC50 [7]: > 2.5 µM
- IC50 [8]: > 2.5 µM
- IC50 [9]: > 2.5 µM
- IC50 [10]: > 2.5 µM
- IC50 [11]: > 2.5 µM
- IC50 [12]: > 2.5 µM
- IC50 [13]: > 2.5 µM
- IC50 [14]: > 2.5 µM

Reference: ChEMBL document CHEMBL1201861, “Genomics of Drug Sensitity in Cancer screening data, Wellcome Trust Sanger Institute”
